Data on six compounds can be found in ChEMBL document CHEMBL1201862, “PubChem BioAssay data set” (2004).

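A five-concentration, 48-hour dose response in 96-well plates underlies each endpoint, interpolated linearly between surrounding concentrations. Abbreviation: GI50, concentration required for 50% inhibition of growth.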 Calls of active or inactive are those of the source. No stated cut-off is given here; in the data, active = GI50 up to about 1.1 µM and inactive = higher. A value given as a limit tells only on which side of the number the result lay.

Experiment in all cases: NCI-60 cell line screen, 48 h
Assay [1] deals with A549.
For assay [2], the system named is HCT-15.
In assay [3] the test system is HOP-62.
Assay [4] relates to HT-29.
In assay [5] the test system is IGROV-1.
Assay [6] has as its system MOLT-4.
In assay [7] the test system is Malme-3M.
In assay [8] the test system is NCI-H522.
Assay [9] deals with OVCAR-3.
Assay [10] concerns OVCAR-5.
The test system of assay [11] is OVCAR-8.
The test system of assay [12] is RPMI-8226.
For assay [13], the system named is SF-268.
Assay [14] relates to SF-295.
For assay [15], the system named is SK-MEL-5.
Assay [16] deals with SK-OV-3.
The test system of assay [17] is SNB-78.
Assay [18] deals with SW-620.
In assay [19] the test system is UO-31.
The subject of assay [20] is DLD-1.

For `COc1ccc(C2C(C#N)=C(O)NC(O)=C2C#N)cc1OC`, the GI50 in assay [1] was > 100 µM (inactive); in [2], above 100 µM; in assay [3], > 100 µM (inactive); in assay [4], > 100 µM (inactive); in [5], > 100 µM (inactive); in [6], > 100 µM (inactive). Further, the GI50 in [7], in assay [8], in assay [9], in [10], in assay [11] and in [12] was > 100 µM (inactive) throughout. Besides, the GI50 in assay [13], in assay [14], in assay [15], in assay [16], in assay [17] and in assay [18] was > 100 µM (inactive) each time. Further, the GI50 in assay [19] was > 100 µM (inactive).
For `CCN1CC2(CO)CCC(OC)C34C5CC6C(OC)CC(O)(C5C6OC)C(O)(C(OC)C23)C14` (stereo unspecified), the GI50 in [1] is > 375 µM (inactive); in assay [20], 80.7 µM (inactive); in assay [2], above 375 µM; in assay [3], > 375 µM (inactive); in assay [4], > 375 µM (inactive); in assay [5], > 375 µM (inactive). In addition, the GI50 in [6] is > 375 µM (inactive); in [7] it was > 375 µM (inactive); in [8] it was > 375 µM (inactive); in assay [9], > 174 µM (inactive); in [10], > 177 µM (inactive); in assay [11] it was > 375 µM (inactive). Also, the GI50 in assay [12] is > 375 µM (inactive); in assay [13], > 375 µM (inactive); in assay [14], > 375 µM (inactive); in assay [15], > 211 µM (inactive); in assay [16] it was > 375 µM (inactive); in [17], > 375 µM (inactive). Further, the GI50 in assay [18] and in [19] was > 375 µM (inactive) each time.
Consider `CN(C)CCNCc1c2ccccc2c(CNCCN(C)C)c2ccccc12`, for which the GI50 is 23.1 µM (inactive) in [1]; 29.4 µM (inactive) in assay [20]; 41.1 µM in assay [2]; 18 µM (inactive) in assay [3]; 14 µM (inactive) in assay [4]; 26.6 µM (inactive) in [5]. For the same compound, the GI50 in assay [6] is 2.2 µM (inactive); in [7], 18.4 µM (inactive); in assay [8], 31 µM (inactive); in assay [9], 37.5 µM (inactive); in assay [10], 17.1 µM (inactive); in [11], 31.6 µM (inactive). Moreover, the GI50 in [12] was 31 µM (inactive); in assay [13] it was 27 µM (inactive); in assay [14] it was 49.2 µM (inactive); in assay [15], 12.8 µM (inactive); in [16], 16.9 µM (inactive); in [17], 41.8 µM (inactive). Also, the GI50 in assay [18] was 18 µM (inactive); in assay [19] it was > 100 µM (inactive).
In the case of `O=C(O)CCC(NC(=O)c1ccc(Nc2nc3ccc(C(F)(F)F)cc3nc2-c2ccccc2)cc1)C(=O)O` (stereo unspecified), the GI50 in [1] is > 100 µM (inactive); in assay [20], > 100 µM (inactive); in [2], above 100 µM; in assay [3] it was > 100 µM (inactive); in assay [4] it was > 100 µM (inactive); in [5] it was > 100 µM (inactive). Besides, the GI50 in [6], in assay [7], in assay [8], in assay [9], in [10] and in [11] was > 100 µM (inactive) throughout. The GI50 in assay [12], in assay [13], in [14], in assay [15], in assay [16] and in assay [17] was > 100 µM (inactive) each time. The GI50 in assay [18] and in [19] was > 100 µM (inactive) throughout.
Consider `CCC12CCC[C@@]13C=C[C@H](O3)C(C)(C)C2=O` (stereo partly specified), for which the GI50 in assay [1] is > 100 µM (inactive); in assay [20], > 100 µM (inactive); in [2], above 100 µM; in assay [3], > 100 µM (inactive); in assay [4], > 100 µM (inactive); in assay [5] it was > 100 µM (inactive). Moreover, the GI50 in assay [6], in assay [7], in [8], in assay [9], in assay [10] and in assay [11] was > 100 µM (inactive) in each case. The GI50 in [12], in assay [13], in [14], in assay [15], in assay [16] and in assay [17] was > 100 µM (inactive) in each case. Moreover, the GI50 in [18] and in [19] was > 100 µM (inactive) each time.
As for `S=C1NN=C2C(=C3CCCC4C5CCCCC5N2C34)N1` (stereo unspecified), the GI50 in [1] was > 100 µM (inactive); in assay [2] it was above 100 µM; in [3], > 100 µM (inactive); in assay [5] it was > 100 µM (inactive); in [6] it was 38 µM (inactive); in assay [7], > 100 µM (inactive). Also, the GI50 in assay [8] was 62.2 µM (inactive); in [9] it was > 100 µM (inactive); in assay [10] it was > 100 µM (inactive); in [11] it was > 100 µM (inactive); in assay [12], 28.4 µM (inactive); in [13], > 100 µM (inactive). The GI50 is > 100 µM (inactive) in [14]; 82.6 µM (inactive) in assay [15]; > 100 µM (inactive) in assay [16]; > 100 µM (inactive) in [18]; > 100 µM (inactive) in assay [19].
